Measurements reported in ChEMBL document CHEMBL1144787, “Insect antifeedant sesquiterpene acetals from the liverwort Lepidolaena clavigera. 2. structures, artifacts, and activity” (J Nat Prod, 2008).

How the values were obtained:
[1] = Antifeedant activity in Tineola bisselliella larvae assessed as loss in wool weight at 0.1% w/w relative to control; format: functional
Tineola bisselliella [2] = assay: Survival of Tineola bisselliella larvae at 0.1% w/w relative to control; format: functional
[3] = Cytotoxicity against monkey BSC cells assessed as zone of inhibition at 30 ug/disc; format: cell-based, Macaca mulatta; conditions: rhesus monkey
[4] = Antifeedant activity in Anthrenocerus australis larvae assessed as loss in wool weight at 0.1% w/w relative to control; format: functional
Eurhopalus australis [5] = assay: Survival of Anthrenocerus australis larvae at 0.1% w/w relative to control; format: functional
Eurhopalus australis [6] = assay: Survival of Anthrenocerus australis larvae at 0.025% w/w relative to control; format: functional
Eurhopalus australis [7] = assay: Survival of Anthrenocerus australis larvae at 0.05% w/w relative to control; format: functional
[8] = Antifeedant activity in Anthrenocerus australis larvae assessed as loss in wool weight at 0.025% w/w relative to control; format: functional
[9] = Antifeedant activity in Anthrenocerus australis larvae assessed as loss in wool weight at 0.05% w/w relative to control; format: functional
[10] = Cytotoxicity against monkey BSC cells assessed as zone of inhibition at 60 ug/disc; format: cell-based, Macaca mulatta; conditions: rhesus monkey
Eurhopalus australis [11] = assay: Survival of Anthrenocerus australis larvae at 0.01% w/w relative to control; format: functional
Tineola bisselliella [12] = assay: Survival of Tineola bisselliella larvae at 0.01% w/w relative to control; format: functional
Tineola bisselliella [13] = assay: Antifeedant activity in Tineola bisselliella larvae assessed as loss in wool weight at 0.01% w/w relative to control; format: functional
[14] = Antifeedant activity in Anthrenocerus australis larvae assessed as loss in wool weight at 0.01% w/w relative to control; format: functional

In the case of `CC(=O)OC(C(=O)C=C(C)C)[C@]12[C@@H](OC(C)=O)O[C@@H]3C=C(C)[C@H]1C[C@@H]32` (stereo partly drawn) [CLAVIGERIN A], the Activity [1] is reported as 2%, the survival at 0.1 % strength (Tineola bisselliella [2]) is reported as 95% and the “inhibition zone (IZ)” value [3] is reported as 1 mm.

`CC(=O)O[C@H]1O[C@@H]2C=C(C)[C@H]3C[C@@H]2[C@@]13CC(=O)C=C(C)C` [CLAVIGERIN B] showed an Activity [1] of -74%, an Activity [4] of -78% and a survival at 0.1 % strength (Tineola bisselliella [2]) of 27%. The survival at 0.1 % strength (Eurhopalus australis [5]) was 95%, the “inhibition zone (IZ)” value [3] was 1 mm and the survival at 0.025 % strength (Eurhopalus australis [6]) was 98%. For the same molecule, the survival at 0.05 % strength (Eurhopalus australis [7]) was 98%, the Activity [8] was -34% and the Activity [9] was -79%.

In the case of `CC(=O)O[C@H]1O[C@@H]2C=C(C)[C@H]3C[C@@H]2[C@@]13CC(=O)CC(C)C` [CLAVIGERIN C], the Activity [1] is reported as -95%, the Activity [4] is reported as -86% and the survival at 0.1 % strength (Tineola bisselliella [2]) is reported as 5%. The survival at 0.1 % strength (Eurhopalus australis [5]) was 96%, the “inhibition zone (IZ)” value [3] was over 4 mm and the survival at 0.025 % strength (Eurhopalus australis [6]) was 98%. The survival at 0.05 % strength (Eurhopalus australis [7]) was 97%, the Activity [8] was -50% and the Activity [9] was -62%.

In the case of `CO[C@H]1O[C@@H]2C=C(C)[C@H]3C[C@@H]2[C@@]13CC(=O)CC(C)C` [METHOXY CLAVIGERIN C], the Activity [1] is reported as -12%, the survival at 0.1 % strength (Tineola bisselliella [2]) is reported as 86% and the “inhibition zone (IZ)” value [10] is reported as 1 mm.

For `CC1(C)C(C=C(Cl)Cl)C1C(=O)OCc1cccc(Oc2ccccc2)c1` (stereo not drawn) [PERMETHRIN], the survival at 0.01 % strength (Eurhopalus australis [11]) was 96%, the survival at 0.01 % strength (Tineola bisselliella [12]) was 0% and the Activity (Tineola bisselliella [13]) was -100%. For the same molecule, the Activity [14] was -100%.
